Reference: ChEMBL document CHEMBL2434936, “Bicyclic and tricyclic heterocycle derivatives as histamine H3 receptor antagonists for the treatment of obesity” (Bioorg Med Chem Lett, 2013)
The source made the active and inactive calls. No cut-off for these calls is given here.

Experiments:
Histamine H3 receptor [1] = biological target: Histamine H3 receptor (Mus musculus, UniProt P58406); assay: Displacement of [3H]N-alpha-methylhistamine from mouse histamine H3 receptor after 30 mins by scintillation counting analysis
Sequence of Histamine H3 receptor (Mus musculus, UniProt P58406) (P58406 whole entry): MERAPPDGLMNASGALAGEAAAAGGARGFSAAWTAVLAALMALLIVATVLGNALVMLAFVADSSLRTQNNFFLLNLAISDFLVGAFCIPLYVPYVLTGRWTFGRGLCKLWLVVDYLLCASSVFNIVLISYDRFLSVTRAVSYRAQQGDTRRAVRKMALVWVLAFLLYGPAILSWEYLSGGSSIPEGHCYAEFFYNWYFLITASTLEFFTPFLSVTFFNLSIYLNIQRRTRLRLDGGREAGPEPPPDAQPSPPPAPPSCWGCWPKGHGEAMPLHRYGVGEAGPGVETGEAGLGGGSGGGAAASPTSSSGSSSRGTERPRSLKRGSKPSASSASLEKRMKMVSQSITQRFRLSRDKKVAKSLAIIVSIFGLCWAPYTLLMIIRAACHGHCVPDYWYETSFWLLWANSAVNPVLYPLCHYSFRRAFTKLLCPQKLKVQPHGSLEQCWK

hERG (KCNH2) = hERG (KCNH2) (Homo sapiens, UniProt Q12809); assay: Inhibition of human ERG channel at 5 ug/ml after 30 mins by rubidium efflux assay
Sequence of hERG (KCNH2) (Q12809 whole entry): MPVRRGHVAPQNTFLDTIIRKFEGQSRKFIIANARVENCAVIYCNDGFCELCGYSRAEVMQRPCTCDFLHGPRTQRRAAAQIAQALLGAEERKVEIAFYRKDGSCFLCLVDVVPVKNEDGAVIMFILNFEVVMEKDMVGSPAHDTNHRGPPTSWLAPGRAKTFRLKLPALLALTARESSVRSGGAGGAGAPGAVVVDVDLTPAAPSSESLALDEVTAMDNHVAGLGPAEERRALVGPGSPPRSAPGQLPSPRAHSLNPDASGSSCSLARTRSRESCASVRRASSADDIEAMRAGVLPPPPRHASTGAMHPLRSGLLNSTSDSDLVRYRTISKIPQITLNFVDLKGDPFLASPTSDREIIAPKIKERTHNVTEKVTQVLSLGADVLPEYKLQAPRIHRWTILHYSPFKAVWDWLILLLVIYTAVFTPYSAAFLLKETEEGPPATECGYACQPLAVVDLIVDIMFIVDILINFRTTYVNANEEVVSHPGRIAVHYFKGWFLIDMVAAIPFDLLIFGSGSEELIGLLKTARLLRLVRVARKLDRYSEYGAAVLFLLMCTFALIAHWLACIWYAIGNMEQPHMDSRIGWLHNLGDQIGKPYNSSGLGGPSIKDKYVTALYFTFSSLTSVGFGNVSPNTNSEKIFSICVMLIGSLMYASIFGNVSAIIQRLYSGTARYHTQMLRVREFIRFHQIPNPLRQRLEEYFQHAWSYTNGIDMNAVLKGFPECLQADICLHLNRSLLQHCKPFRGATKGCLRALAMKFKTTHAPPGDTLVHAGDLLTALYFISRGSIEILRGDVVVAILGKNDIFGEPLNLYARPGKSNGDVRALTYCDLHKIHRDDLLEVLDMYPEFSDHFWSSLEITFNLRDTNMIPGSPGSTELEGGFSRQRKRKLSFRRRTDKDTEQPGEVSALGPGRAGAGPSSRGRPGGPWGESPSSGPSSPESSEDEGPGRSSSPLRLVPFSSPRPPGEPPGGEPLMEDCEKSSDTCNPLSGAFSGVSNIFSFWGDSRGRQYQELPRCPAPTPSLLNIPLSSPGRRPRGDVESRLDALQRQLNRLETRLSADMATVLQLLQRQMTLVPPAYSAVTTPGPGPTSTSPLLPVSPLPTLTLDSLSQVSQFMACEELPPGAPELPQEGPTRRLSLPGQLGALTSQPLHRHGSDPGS

Mus musculus [2] = assay: Ex vivo displacement of [3H]N-alpha-methylhistamine from histamine H3 receptor in mouse cortex at 10 mg/kg, po after 4 hrs by topcount scintillation counting analysis; type: functional
Histamine H3 receptor [3] = biological target: Histamine H3 receptor (Homo sapiens, UniProt Q9Y5N1); assay: Displacement of [3H]N-alpha-methylhistamine from human recombinant histamine H3 receptor expressed in HEK cells after 30 mins by scintillation counting analysis; type: cell-based, HEK293
Sequence of Histamine H3 receptor (Homo sapiens, UniProt Q9Y5N1) (Q9Y5N1 whole entry): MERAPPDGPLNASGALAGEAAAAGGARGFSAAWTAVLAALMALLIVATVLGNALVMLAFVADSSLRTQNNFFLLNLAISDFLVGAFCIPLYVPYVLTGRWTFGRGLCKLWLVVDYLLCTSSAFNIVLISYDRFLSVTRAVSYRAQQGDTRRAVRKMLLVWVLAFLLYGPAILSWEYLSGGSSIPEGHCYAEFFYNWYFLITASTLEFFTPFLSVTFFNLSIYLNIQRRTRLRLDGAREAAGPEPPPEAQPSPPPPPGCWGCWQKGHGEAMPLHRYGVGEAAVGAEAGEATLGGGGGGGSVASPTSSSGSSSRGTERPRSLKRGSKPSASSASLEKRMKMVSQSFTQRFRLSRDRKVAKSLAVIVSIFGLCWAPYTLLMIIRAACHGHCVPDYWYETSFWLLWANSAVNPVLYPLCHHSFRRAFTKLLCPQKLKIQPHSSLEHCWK

Mus musculus [4] = assay: Ex vivo displacement of [3H]N-alpha-methylhistamine from histamine H3 receptor in mouse cortex at 1 mg/kg, po after 4 hrs by topcount scintillation counting analysis; type: functional
Cytochrome P450 3A4 = Cytochrome P450 3A4 (Homo sapiens, UniProt P08684); assay: Inhibition of CYP3A4 in human liver microsomes; type: ADME, Microsome
Sequence of Cytochrome P450 3A4 (P08684 whole entry): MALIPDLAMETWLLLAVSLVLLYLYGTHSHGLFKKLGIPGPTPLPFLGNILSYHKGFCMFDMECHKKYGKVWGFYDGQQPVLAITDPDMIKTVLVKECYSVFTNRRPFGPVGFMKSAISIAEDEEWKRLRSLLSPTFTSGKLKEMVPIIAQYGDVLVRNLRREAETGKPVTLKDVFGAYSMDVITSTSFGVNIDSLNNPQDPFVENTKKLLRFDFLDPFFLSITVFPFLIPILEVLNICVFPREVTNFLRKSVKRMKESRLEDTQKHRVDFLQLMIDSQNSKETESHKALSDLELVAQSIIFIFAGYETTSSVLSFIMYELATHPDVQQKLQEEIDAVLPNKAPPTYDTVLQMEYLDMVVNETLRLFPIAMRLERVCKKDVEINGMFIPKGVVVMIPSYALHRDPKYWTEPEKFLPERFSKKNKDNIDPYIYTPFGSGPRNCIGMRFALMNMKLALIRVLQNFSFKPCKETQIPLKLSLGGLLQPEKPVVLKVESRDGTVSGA

Cytochrome P450 2C9 = Cytochrome P450 2C9 (Homo sapiens, UniProt P11712); assay: Inhibition of CYP2C9 in human liver microsomes; type: ADME, Microsome
Sequence of Cytochrome P450 2C9 (P11712 whole entry): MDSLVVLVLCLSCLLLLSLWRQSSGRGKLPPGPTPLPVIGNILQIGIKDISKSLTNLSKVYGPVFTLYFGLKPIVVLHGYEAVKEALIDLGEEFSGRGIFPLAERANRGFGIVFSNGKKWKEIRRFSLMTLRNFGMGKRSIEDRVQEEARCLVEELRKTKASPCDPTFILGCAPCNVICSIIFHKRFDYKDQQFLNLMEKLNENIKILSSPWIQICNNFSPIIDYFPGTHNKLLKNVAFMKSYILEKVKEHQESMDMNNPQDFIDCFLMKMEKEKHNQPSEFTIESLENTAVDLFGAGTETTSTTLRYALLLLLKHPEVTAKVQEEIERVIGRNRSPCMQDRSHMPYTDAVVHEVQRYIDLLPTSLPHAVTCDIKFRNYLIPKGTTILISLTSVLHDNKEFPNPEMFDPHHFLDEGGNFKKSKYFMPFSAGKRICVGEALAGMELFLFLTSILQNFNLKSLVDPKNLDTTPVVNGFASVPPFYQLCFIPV

Cytochrome P450 2D6 = Cytochrome P450 2D6 (Homo sapiens, UniProt P10635); assay: Inhibition of CYP2D6 in human liver microsomes; type: ADME, Microsome
Sequence of Cytochrome P450 2D6 (P10635 whole entry): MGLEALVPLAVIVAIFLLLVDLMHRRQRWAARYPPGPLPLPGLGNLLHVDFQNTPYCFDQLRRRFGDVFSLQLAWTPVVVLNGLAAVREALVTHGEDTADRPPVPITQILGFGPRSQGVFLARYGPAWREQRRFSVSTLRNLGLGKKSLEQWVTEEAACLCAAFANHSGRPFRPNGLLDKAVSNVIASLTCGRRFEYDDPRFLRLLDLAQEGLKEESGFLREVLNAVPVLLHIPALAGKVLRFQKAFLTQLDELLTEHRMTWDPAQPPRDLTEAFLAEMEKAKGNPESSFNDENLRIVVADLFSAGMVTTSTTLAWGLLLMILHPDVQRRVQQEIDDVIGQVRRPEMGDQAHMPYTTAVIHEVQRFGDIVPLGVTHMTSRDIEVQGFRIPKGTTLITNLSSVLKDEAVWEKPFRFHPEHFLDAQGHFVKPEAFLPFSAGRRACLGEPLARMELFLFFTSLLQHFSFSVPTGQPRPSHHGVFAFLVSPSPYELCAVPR

[5] = Plasma concentration in rat at 100 mg/kg, po after 4 hrs by Irwin test; type: ADME, organism-based; parameters: dose 100 mg/kg, route oral
Mus musculus [6] = assay: Antiobesity activity in diet-induced obesity mouse model assessed as reduction in body weight at 3 mg/kg, po after 4 days relative to vehicle-treated control; type: functional; conditions: 96 h
Mus musculus [7] = assay: Antiobesity activity in diet-induced obesity mouse model assessed as reduction in body weight at 1 mg/kg, po after 4 days relative to vehicle-treated control; type: functional; conditions: 96 h
Mus musculus [8] = assay: Antiobesity activity in diet-induced obesity mouse model assessed as reduction in body weight at 10 mg/kg, po after 4 days relative to vehicle-treated control; type: functional; conditions: 96 h
Rattus norvegicus = assay: Toxicity in rat assessed as behavioral change at 100 to 300 mg/kg, po by Irwin test; type: organism-based; parameters: dose 100-300 mg/kg, route oral; conditions: in vivo
Mus musculus [9] = species on record: Mus musculus; assay: Ex vivo receptor occupancy of histamine H3 receptor in mouse brain after 72 hrs by time-course method; type: functional, organism-based
[10] = Plasma concentration in rat at 300 mg/kg, po after 4 hrs by Irwin test; type: ADME, organism-based; parameters: dose 300 mg/kg, route oral
[11] = Drug uptake in rat brain at 300 mg/kg, po after 4 hrs by Irwin test; type: ADME, organism-based; parameters: dose 300 mg/kg, route oral; conditions: read-out: Drug uptake
[12] = Drug uptake in rat brain at 100 mg/kg, po after 4 hrs by Irwin test; type: ADME, organism-based; parameters: dose 100 mg/kg, route oral; conditions: read-out: Drug uptake
Mus musculus [13] = assay: Ex vivo displacement of [3H]N-alpha-methylhistamine from histamine H3 receptor in mouse cortex at 3 mg/kg, po after 4 hrs by topcount scintillation counting analysis; type: functional

SMILES | Ki (Histamine H3 receptor [1]) | Ki (Histamine H3 receptor [3]) | IC50 (Cytochrome P450 3A4) | IC50 (Cytochrome P450 2C9) | IC50 (Cytochrome P450 2D6) | concentration at 4 h [5] | Activity (Mus musculus [9]) | concentration at 4 h [10] | concentration at 4 h [11] | concentration at 4 h [12] | inhibition at 0.5 h, 5 ug/ml (hERG (KCNH2)) | inhibition in vivo at 10 mg/kg (Mus musculus [2]) | inhibition in vivo at 1 mg/kg (Mus musculus [4]) | inhibition in vivo at 3 mg/kg (Mus musculus [6]) | inhibition in vivo at 1 mg/kg (Mus musculus [7]) | inhibition in vivo at 10 mg/kg (Mus musculus [8]) | Activity (Rattus norvegicus) | inhibition in vivo at 3 mg/kg (Mus musculus [13])
Nc1cc(CN2CCC(F)(C(=O)N3CCC(N4c5ccccc5Sc5ccc(C(F)(F)F)cc54)CC3)CC2)ccn1 | 51 nM | 11 nM |  |  |  |  |  |  |  |  | 79% | 25% |  |  |  |  |  | 
Nc1cc(CN2CCC(F)(C(=O)N3CCC(N4Cc5ccccc5C4)CC3)CC2)ccn1 | 4 nM | 2 nM | > 30000 nM | > 30000 nM | > 30000 nM |  |  |  |  |  | -2% |  | 81% |  |  |  |  | 
Cn1c2c(c3ccccc31)CCN(C1CCN(C(=O)C3(F)CCN(Cc4ccnc(N)c4)CC3)CC1)CC2 | 46 nM | 15 nM | > 30000 nM | > 30000 nM | > 30000 nM |  |  |  |  |  | 21% |  |  |  |  |  |  | 
Nc1cc(CN2CCC(F)(C(=O)N3CCC(N4Cc5ccccc5Cc5ccccc54)CC3)CC2)ccn1 | 44 nM | 4 nM | 18000 nM | 4000 nM | > 30000 nM |  |  |  |  |  | 50% |  |  |  |  |  |  | 
Nc1cc(CN2CCC(F)(C(=O)N3CCC(N4CCNc5ccccc5C4)CC3)CC2)ccn1 | 3 nM | 1 nM | > 30000 nM | > 30000 nM | > 30000 nM |  |  |  |  |  | 12% |  |  |  |  |  |  | 22%
Nc1cc(CN2CCC(F)(C(=O)N3CCC(N4Cc5cccnc5C4)CC3)CC2)ccn1 | 15 nM | 7 nM |  |  |  |  |  |  |  |  |  |  |  |  |  |  |  | 
Cc1nnc2n1-c1sccc1C(=O)N(C1CCN(C(=O)C3(F)CCN(Cc4ccnc(N)c4)CC3)CC1)C2 | 70 nM | 27 nM | > 30000 nM | > 30000 nM | > 30000 nM |  |  |  |  |  | 6% | 0% |  |  |  |  |  | 
COc1ccc2c(c1)CCCN(C1CCN(C(=O)C3(F)CCN(Cc4ccnc(N)c4)CC3)CC1)C2 | 3 nM | 1 nM | > 30000 nM | > 30000 nM | > 30000 nM |  |  |  |  |  | 12% | 74% |  |  |  |  |  | 
Nc1cc(CN2CCC(F)(C(=O)N3CCC(N4c5ccccc5Sc5ccccc54)CC3)CC2)ccn1 | 7 nM | 7 nM | > 30000 nM | > 30000 nM | > 30000 nM |  |  |  |  |  | 40% | 84% |  |  |  |  |  | 
Cc1nnc2n1-c1sccc1CN(C1CCN(C(=O)C3(F)CCN(Cc4ccnc(N)c4)CC3)CC1)C2 | 2 nM | 1 nM | > 30000 nM | > 30000 nM | > 30000 nM |  |  |  |  |  | 9% | 14% |  |  |  |  |  | 

More lines, main results first:

Ki (Histamine H3 receptor [1]) | Ki (Histamine H3 receptor [3]) | IC50 (Cytochrome P450 3A4) | IC50 (Cytochrome P450 2C9) | IC50 (Cytochrome P450 2D6) | concentration at 4 h [5] | Activity (Mus musculus [9]) | concentration at 4 h [10] | concentration at 4 h [11] | concentration at 4 h [12] | SMILES | inhibition at 0.5 h, 5 ug/ml (hERG (KCNH2)) | inhibition in vivo at 10 mg/kg (Mus musculus [2]) | inhibition in vivo at 1 mg/kg (Mus musculus [4]) | inhibition in vivo at 3 mg/kg (Mus musculus [6]) | inhibition in vivo at 1 mg/kg (Mus musculus [7]) | inhibition in vivo at 10 mg/kg (Mus musculus [8]) | Activity (Rattus norvegicus) | inhibition in vivo at 3 mg/kg (Mus musculus [13])
4 nM | 2 nM | > 30000 nM | > 30000 nM | > 30000 nM |  |  |  |  |  | Nc1cc(CN2CCC(F)(C(=O)N3CCC(N4CCc5ccccc5C4)CC3)CC2)ccn1 | 2% |  | 73% |  |  |  |  | 
4 nM | 2 nM | > 30000 nM | > 30000 nM | > 30000 nM |  |  |  |  |  | COc1ccc2c(c1)CN(C1CCN(C(=O)C3(F)CCN(Cc4ccnc(N)c4)CC3)CC1)CCC2 | 7% | 77% |  |  |  |  |  | 
115 nM | 36 nM | > 30000 nM | > 30000 nM | > 30000 nM |  |  |  |  |  | Nc1cc(CN2CCC(F)(C(=O)N3CCC(N4CCCc5ccccc5C4)CC3)CC2)ccn1 | 25% | 78% |  |  |  |  |  | 
3 nM | 1 nM | > 30000 nM | > 30000 nM | > 30000 nM | 836 ng/mL | Active | 4940 ng/mL | 47100 ng/g | 13700 ng/g | Nc1cc(CN2CCC(F)(C(=O)N3CCC(N4CCc5ccccc5CC4)CC3)CC2)ccn1 | -2% | 98% |  | 52% | 38% | 89% | Non-toxic | 
7 nM | 2 nM | > 30000 nM | > 30000 nM | > 30000 nM |  |  |  |  |  | Nc1cc(CN2CCC(F)(C(=O)N3CCC(N4Cc5ccc(F)cc5C4)CC3)CC2)ccn1 | 4% |  |  |  |  |  |  | 94%
2 nM | 2 nM | > 30000 nM | > 30000 nM | > 30000 nM |  |  |  |  |  | N#Cc1ccc2c(c1)CN(C1CCN(C(=O)C3(F)CCN(Cc4ccnc(N)c4)CC3)CC1)CC2 | 11% |  | 52% |  |  |  |  | 
26 nM | 7 nM |  |  |  |  |  |  |  |  | Nc1cc(CN2CCC(F)(C(=O)N3CCC(N4c5ccccc5Sc5cccnc54)CC3)CC2)ccn1 | 54% | 89% |  |  |  |  |  | 
4 nM | 2 nM | 18000 nM | > 30000 nM | 300 nM |  |  |  |  |  | Nc1cc(CN2CCC(F)(C(=O)N3CCC(N4Cc5ccccc5-c5ccccc5C4)CC3)CC2)ccn1 | 27% |  |  | 38% | 28% | 65% |  | 91%
